Data on one molecule can be found in article PMC5652080 (Current Enzyme Inhibition, 2015).

Test [1] concerns the target Triosephosphate isomerase (G233D HsTIM) (Homo sapiens, UniProt P60174, G233D). In words: coupled enzyme assay, Kmapp vs PEP at varied GAP. Format: biochemical.
In test [2] the target is Triosephosphate isomerase (WT HsTIM) (Homo sapiens, UniProt P60174). Kind of test: coupled enzyme assay, Kmapp vs PEP at varied GAP. Format: biochemical.
Chain of Triosephosphate isomerase (WT HsTIM) (P60174 2-249): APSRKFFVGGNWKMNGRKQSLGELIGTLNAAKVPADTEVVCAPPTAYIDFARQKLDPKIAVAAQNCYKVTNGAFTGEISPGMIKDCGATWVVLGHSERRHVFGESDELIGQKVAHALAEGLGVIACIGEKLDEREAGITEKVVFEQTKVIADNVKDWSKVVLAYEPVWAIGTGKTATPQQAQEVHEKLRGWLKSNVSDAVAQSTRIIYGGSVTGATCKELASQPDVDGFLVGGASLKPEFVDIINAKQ

Chain of Triosephosphate isomerase (G233D HsTIM) (P60174 2-249 G233D): as the sequence (P60174 2-249) above, with G232D counted along it

Broadly, the Ki is the dissociation constant of the complex between target and ligand, obtained from inhibition or displacement. Higher therefore signals weaker binding. `C=C(OP(=O)(O)O)C(=O)O` [phosphoenolpyruvate]: the Ki in test [1] was determined as 120 ± 5.2 µM; in test [2] it was 123 ± 5 µM.
